Numbered stars: 1 amine (or outer) side, 2 acyl side, 3 side chain; on linkers, the order of the positions; unused ones are H or OH. Square brackets hold non-standard residues; d marks the D form. Peptide text beside a SMILES is read from it. X2 = O=C([C@H](Cc1cn(CCCCCCCCc2ccccc2)c2ccccc12)N[*:1])[*:2]; X1 = O=C([C@H](Cc1cn(CCCCCCCCc2ccccc2)cn1)N[*:1])[*:2]; pT = C[C@@H](OP(=O)(O)O)[C@H](N)C(=O)O
Molecular target: Serine/threonine-protein kinase PLK1 (Homo sapiens, UniProt P53350)
Experiment: Competitive binding affinity to GFP-HA-fused PLK1 polo box domain expressed in HEK293A cells using biotinylated p-T38 peptide as substrate after 1 hr by ELISA
Set-up: species or system HEK293-A

Sequence of Serine/threonine-protein kinase PLK1 (P53350 whole entry, the tested form may be a part): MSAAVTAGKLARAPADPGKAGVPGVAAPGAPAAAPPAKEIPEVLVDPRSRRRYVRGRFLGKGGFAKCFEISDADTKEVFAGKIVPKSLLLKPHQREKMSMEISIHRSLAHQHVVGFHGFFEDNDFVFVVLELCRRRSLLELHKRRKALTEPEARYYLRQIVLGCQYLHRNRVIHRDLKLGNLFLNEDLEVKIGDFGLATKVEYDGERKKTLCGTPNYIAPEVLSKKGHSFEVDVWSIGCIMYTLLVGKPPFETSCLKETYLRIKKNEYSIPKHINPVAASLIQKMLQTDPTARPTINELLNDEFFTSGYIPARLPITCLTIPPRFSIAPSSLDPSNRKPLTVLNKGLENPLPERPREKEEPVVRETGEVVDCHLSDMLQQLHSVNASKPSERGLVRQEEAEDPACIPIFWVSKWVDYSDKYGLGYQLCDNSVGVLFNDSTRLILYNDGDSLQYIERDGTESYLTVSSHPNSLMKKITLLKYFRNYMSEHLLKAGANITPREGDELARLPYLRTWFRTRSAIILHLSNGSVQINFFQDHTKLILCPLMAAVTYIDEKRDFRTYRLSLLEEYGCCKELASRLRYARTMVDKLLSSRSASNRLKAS

Structure (SMILES)	IC50 [µM]
CC(=O)N1CCC[C@H]1C(=O)N[C@@H](CC(C)C)C(=O)N[C@@H](Cc1cn(CCCCCCCCc2ccccc2)cn1)C(=O)N[C@@H](CO)C(=O)N[C@H](C(N)=O)[C@@H](C)OP(=O)(O)O (Ac-PL[X1]S[pT]-NH2)	0.32
CC(=O)N1CCC[C@H]1C(=O)N[C@@H](CC(C)C)C(=O)N[C@@H](Cc1cn(CCCCCCCCc2ccccc2)c2ccccc12)C(=O)N[C@@H](CO)C(=O)N[C@H](C(N)=O)[C@@H](C)OP(=O)(O)O (Ac-PL[X2]S[pT]-NH2)	9.3

Reference: ChEMBL document CHEMBL2202993, “Non-proteinogenic amino acids in the pThr-2 position of a pentamer peptide that confer high binding affinity for the polo box domain (PBD) of polo-like kinase 1 (Plk1)” (Bioorg Med Chem Lett, 2012)
